SMILES strings stand for the structures.

The subject of one assay is MV4-11 (leukemia). Description: Cell proliferation inhibition in vitro, CellTiter-Glo, MV4-11. It is filed as cell-based. The conditions noted are these: Homo sapiens; MV4-11 cells, 120 hours, CellTiter-Glo; read-out: MV4-11/IC50/μM. On the procedure:
(§1) By detecting the effect of compounds on cell activity in vitro in tumor cell lines TOV21G (ovarian cancer) and MV4-11 (leukemia), the inhibitory effect of compounds on cell proliferation was studied in this assay.
(§2) TOV21G cells and MV4-11 cells were purchased from American Type Culture Collection (ATCC).
MV-4-11 cells were cultured in IMDM medium (containing 20% of FBS). About 10,000 cells were inoculated in each well of a 96-well culture plate, and treated by adding different concentrations (0-10 μM) of compounds to be assayed. Each group was assayed in triplicate. Blank wells (containing medium only) and control wells (inoculated cells without being treated with drug) were set. Cells were cultured for 120 hours. 40 μL of Cell Titer-Glo solutions were added to each well, and the cells were incubated with shaking for 20 min in the dark. 100 μL of solution was transferred from each well to a 96-well blank plate, and the luminescence value was read by Biotek Synergy HI multifunctional microplate reader. Inhibition rate (%)=100%×(control well−assay well)/(control well−blank well)
Consider `COc1cncc(-n2nc(C)c(-c3cc(N4CCOC[C@H]4C)nc(-c4cc(F)cc5[nH]ccc45)n3)c2C)c1` [Compound A1], for which the IC50 was determined as 0.658 µM.

Consider `Cc1nn(-c2ccncc2)c(C)c1-c1cc(N2CCOC[C@H]2C)nc(-c2cc(F)cc3[nH]ccc23)n1` [Compound A2], for which the IC50 stood at 0.635 µM.

As for `Cc1nn(-c2cccnc2)c(C)c1-c1cc(N2CCOC[C@H]2C)nc(-c2cc(F)cc3[nH]ccc23)n1` [Compound A4], the IC50 was 0.193 µM.

Regarding `COc1ccc(-n2nc(C)c(-c3cc(N4CCOC[C@H]4C)nc(-c4cc(F)cc5[nH]ccc45)n3)c2C)cn1` [Compound A5], the IC50 amounted to 0.778 µM.

As to `Cc1nn(-c2ccc(F)nc2)c(C)c1-c1cc(N2CCOC[C@H]2C)nc(-c2cc(F)cc3[nH]ccc23)n1` [Compound A6], the IC50 stood at 0.656 µM.

For `Cc1nn(-c2ccc(=O)[nH]c2)c(C)c1-c1cc(N2CCOC[C@H]2C)nc(-c2cc(F)cc3[nH]ccc23)n1` [Compound A7], the IC50 is 0.1 µM.

In the case of `Cc1ncccc1-n1nc(C)c(-c2cc(N3CCOC[C@H]3C)nc(-c3cc(F)cc4[nH]ccc34)n2)c1C` [Compound A8], the IC50 came out at 0.382 µM.

As for `Cc1nn(-c2cncc(C#N)c2)c(C)c1-c1cc(N2CCOC[C@H]2C)nc(-c2cc(F)cc3[nH]ccc23)n1` [Compound A9], the IC50 was found to be 0.198 µM.

As for `Cc1nn(-c2cnccc2Cl)c(C)c1-c1cc(N2CCOC[C@H]2C)nc(-c2cc(F)cc3[nH]ccc23)n1` [Compound A10], the IC50 was 0.206 µM.

As to `CCc1cncc(-n2nc(C)c(-c3cc(N4CCOC[C@H]4C)nc(-c4cc(F)cc5[nH]ccc45)n3)c2C)c1` [Compound A12], the IC50 came to 0.801 µM.

With `Cc1nn(-c2cncc(C(F)(F)F)c2)c(C)c1-c1cc(N2CCOC[C@H]2C)nc(-c2cc(F)cc3[nH]ccc23)n1` [Compound A13], the IC50 is 2.2 µM.

Turning to `Cc1nn(-c2cnccc2F)c(C)c1-c1cc(N2CCOC[C@H]2C)nc(-c2cc(F)cc3[nH]ccc23)n1` [Compound A14], the IC50 was determined as 0.231 µM.

Turning to `Cc1nn(-c2ccnnc2)c(C)c1-c1cc(N2CCOC[C@H]2C)nc(-c2cc(F)cc3[nH]ccc23)n1` [Compound A15], the IC50 worked out at 0.107 µM.

Take `Cc1nn(-c2cccnn2)c(C)c1-c1cc(N2CCOC[C@H]2C)nc(-c2cc(F)cc3[nH]ccc23)n1` [Compound A16]: the IC50 came out at 0.082 µM.

As for `Cc1nn(-c2cncc(Cl)c2)c(C)c1-c1cc(N2CCOC[C@H]2C)nc(-c2ccnc3[nH]ccc23)n1` [Compound A18], the IC50 amounted to 0.451 µM.

As to `Cc1c(-c2cc(N3CCOC[C@H]3C)nc(-c3ccnc4[nH]ccc34)n2)c(C(F)(F)F)nn1-c1cncc(F)c1` [Compound A20], the IC50 was 0.528 µM.

In the next assay the target is ATR kinase (Homo sapiens, UniProt Q13535). Put plainly: Assay of ATR kinase activity (time-resolved fluorescence, phosphorylation of p53-derived protein). It is filed as biochemical.
ATR kinase, sequence (Q13535 whole entry): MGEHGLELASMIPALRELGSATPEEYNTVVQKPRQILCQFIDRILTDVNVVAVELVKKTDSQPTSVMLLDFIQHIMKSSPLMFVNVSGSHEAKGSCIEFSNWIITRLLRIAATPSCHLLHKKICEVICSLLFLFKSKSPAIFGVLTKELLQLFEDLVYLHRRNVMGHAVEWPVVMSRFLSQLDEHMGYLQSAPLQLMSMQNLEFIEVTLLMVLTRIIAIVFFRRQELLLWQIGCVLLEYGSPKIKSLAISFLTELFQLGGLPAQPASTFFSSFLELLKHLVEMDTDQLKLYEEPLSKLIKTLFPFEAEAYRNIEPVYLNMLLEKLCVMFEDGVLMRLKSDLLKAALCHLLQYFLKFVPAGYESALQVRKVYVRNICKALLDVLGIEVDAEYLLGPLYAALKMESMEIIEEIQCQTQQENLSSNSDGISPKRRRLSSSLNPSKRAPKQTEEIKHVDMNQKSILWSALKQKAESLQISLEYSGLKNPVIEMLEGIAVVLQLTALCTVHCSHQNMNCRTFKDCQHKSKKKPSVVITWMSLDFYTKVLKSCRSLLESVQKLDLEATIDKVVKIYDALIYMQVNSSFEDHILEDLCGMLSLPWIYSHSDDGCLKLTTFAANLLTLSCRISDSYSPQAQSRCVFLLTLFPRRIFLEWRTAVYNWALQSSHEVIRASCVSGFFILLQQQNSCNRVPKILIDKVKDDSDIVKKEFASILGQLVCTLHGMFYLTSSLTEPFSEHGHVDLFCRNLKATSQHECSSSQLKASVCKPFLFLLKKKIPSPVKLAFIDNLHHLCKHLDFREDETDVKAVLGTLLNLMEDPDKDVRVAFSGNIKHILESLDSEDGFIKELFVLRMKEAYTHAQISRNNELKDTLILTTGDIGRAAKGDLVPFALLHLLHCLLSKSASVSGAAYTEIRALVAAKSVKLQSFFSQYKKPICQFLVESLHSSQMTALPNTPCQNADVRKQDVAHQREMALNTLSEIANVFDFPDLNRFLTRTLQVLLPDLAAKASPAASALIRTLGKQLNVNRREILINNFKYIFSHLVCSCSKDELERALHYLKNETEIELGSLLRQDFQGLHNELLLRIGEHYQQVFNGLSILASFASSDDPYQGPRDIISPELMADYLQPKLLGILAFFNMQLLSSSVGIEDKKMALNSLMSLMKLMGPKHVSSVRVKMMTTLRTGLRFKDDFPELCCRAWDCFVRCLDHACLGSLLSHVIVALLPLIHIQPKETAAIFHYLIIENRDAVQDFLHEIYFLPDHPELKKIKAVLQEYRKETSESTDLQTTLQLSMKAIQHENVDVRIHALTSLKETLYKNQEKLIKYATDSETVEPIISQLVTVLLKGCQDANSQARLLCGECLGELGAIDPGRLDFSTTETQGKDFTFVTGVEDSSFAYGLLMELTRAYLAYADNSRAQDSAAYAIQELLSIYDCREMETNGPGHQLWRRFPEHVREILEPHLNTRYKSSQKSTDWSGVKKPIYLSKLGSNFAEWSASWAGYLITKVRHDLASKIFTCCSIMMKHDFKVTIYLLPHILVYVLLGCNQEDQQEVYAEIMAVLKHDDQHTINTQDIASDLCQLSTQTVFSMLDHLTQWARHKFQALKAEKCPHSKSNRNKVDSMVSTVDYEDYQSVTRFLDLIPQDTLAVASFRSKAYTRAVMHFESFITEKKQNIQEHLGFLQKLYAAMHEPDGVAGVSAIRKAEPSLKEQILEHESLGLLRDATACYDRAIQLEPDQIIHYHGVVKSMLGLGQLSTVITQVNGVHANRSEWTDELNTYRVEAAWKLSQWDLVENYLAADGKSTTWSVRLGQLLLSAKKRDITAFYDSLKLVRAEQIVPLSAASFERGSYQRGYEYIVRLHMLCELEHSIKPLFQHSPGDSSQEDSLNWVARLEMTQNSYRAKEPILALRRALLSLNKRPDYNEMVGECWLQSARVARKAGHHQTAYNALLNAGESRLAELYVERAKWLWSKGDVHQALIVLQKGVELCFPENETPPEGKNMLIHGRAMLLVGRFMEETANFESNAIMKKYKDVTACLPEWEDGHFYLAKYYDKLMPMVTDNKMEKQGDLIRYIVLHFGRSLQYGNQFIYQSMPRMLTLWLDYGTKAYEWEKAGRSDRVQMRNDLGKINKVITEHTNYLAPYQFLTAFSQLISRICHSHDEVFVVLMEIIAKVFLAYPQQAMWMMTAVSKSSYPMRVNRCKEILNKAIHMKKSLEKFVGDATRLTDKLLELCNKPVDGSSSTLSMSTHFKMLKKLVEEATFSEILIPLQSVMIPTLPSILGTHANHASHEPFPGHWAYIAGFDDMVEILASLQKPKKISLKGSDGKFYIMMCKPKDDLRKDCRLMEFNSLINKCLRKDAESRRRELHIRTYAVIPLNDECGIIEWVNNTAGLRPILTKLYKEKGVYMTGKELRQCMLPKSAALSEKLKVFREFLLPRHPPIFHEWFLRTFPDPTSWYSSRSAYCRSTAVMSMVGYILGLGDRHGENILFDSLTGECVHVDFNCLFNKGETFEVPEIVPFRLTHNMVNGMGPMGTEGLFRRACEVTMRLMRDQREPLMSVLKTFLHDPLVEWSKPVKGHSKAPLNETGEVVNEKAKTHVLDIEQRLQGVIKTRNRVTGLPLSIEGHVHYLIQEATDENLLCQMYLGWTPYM
ATR kinase, sequence (Q8WXE1 whole entry partner): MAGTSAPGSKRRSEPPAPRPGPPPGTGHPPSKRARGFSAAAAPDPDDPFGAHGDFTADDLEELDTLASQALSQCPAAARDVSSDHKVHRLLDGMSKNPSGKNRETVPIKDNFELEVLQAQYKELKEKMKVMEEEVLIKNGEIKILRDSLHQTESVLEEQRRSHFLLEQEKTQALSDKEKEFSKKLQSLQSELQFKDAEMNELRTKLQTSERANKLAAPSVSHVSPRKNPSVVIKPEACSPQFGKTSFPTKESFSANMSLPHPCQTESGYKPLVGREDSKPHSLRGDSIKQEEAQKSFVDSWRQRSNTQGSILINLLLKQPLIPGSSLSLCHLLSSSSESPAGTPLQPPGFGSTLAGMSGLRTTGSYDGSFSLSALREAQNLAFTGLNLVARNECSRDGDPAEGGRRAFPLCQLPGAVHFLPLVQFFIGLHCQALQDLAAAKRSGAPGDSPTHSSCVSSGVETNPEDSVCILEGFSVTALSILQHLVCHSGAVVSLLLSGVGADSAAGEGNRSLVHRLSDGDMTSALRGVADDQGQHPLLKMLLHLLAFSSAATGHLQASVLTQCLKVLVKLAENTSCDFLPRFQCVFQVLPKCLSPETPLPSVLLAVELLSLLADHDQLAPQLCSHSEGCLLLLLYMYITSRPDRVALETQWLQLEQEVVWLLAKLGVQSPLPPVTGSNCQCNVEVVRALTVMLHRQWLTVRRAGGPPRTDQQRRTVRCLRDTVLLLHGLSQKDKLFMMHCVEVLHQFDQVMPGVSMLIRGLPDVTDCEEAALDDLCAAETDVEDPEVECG
Settings: not given
On the procedure:
Biotinylated protein derived from p53 (Eurofins, art. No.: 14-952) was phosphorylated with ATR kinase. The amount of phosphorylated protein was determined by time-resolved fluorescence in this assay. The amount of phosphorylated protein was detected by anti-p53-phospho-(serine 15)-K-specific antibody (Cisbio, art. No.: 61GSTDLA) and d2 labeled anti-GST antibody (Cisbio, art. No. 61P08KAE). Before the assay, the following working solutions were formulated as required: 1×reaction buffer (20 mM HEPES PH8.0, 1% glycerol, 0.01% Brij-35), dilution buffer (20 mM HEPES PH8.0, 1% glycerol, 0.01% Brij-35, 5 mM DTT and 1% BSA), stop solution (20 mM HEPES PH8.0, 1% glycerol, 0.01% Brij-35, 250 mM EDTA), detection buffer (50 mM HEPES pH7.0, 150 mM NaCl, 267 mM KF, 0.1% sodium cholate, 0.01% Tween-20, 0.0125% sodium azide). The reagents used above were purchased from Sigma or Invitrogen, except for those whose manufacturers were mentioned.
Operations were as follows:
4× serially diluted compound solutions were prepared with 1× reaction buffer to give 9 compound solutions with different concentrations, and 2.5 μL of the 4× serially diluted compound solutions were added to a 384-well analysis plate (784075, Greiner). 4×p53 substrate working solution (40 nM) was prepared with 1× reaction buffer, and 2.5 μL of the 4×p53 substrate working solution was added to a 384-well analysis plate. 4×ATR/ATRIP working solution (12.8 ng/μL) was prepared with dilution buffer, and 2.5 μL of the 4×pATR/ATRIP working solution was added to a 384-well analysis plate. 4×ATP working solution (2 mM) was prepared with deionized water, and 2.5 μL of the 4×ATP working solution was added to a 384-well analysis plate. The plates were incubated at room temperature in dark for 30 minutes. 5 μL of stop solution was added to the 384 analysis plates. Finally, 5 μL of assay mixture (0.084 ng/μL Anti-phospho-p53(ser15)-K and 5 ng/μL Anti-GST-d2) was added to the 384 well analysis plates, and incubated at room temperature overnight. The fluorescence signal was detected with ENVISION (Perkinelmer) instrument (excitation wavelength: 320 nm, emission wavelength: 665 nm and 615 nm). The inhibition rate in each well was calculated by the fluorescence intensity value in each well:ER (Emission Ratio)=(Fluorescence intensity at 665 nm/Fluorescence intensity at 615 nm); inhibition rate=(ER of positive−ER of assay compound)/(ER of positive−ER of negative)×100%. IC50 values of compounds were calculated by standard software for parameter fitting (GraphPad Prism 6.0).
Regarding `COc1cncc(-n2nc(C)c(-c3cc(N4CCOC[C@H]4C)nc(-c4cc(F)cc5[nH]ccc45)n3)c2C)c1` [Compound A1], the IC50 was found to be 11 nM.

In turn, `Cc1nn(-c2ccncc2)c(C)c1-c1cc(N2CCOC[C@H]2C)nc(-c2cc(F)cc3[nH]ccc23)n1` [Compound A2] came in with an IC50 of 8 nM.

`Cc1nn(-c2cccnc2)c(C)c1-c1cc(N2CCOC[C@H]2C)nc(-c2cc(F)cc3[nH]ccc23)n1` [Compound A4] registered an IC50 of 10 nM.

For `COc1ccc(-n2nc(C)c(-c3cc(N4CCOC[C@H]4C)nc(-c4cc(F)cc5[nH]ccc45)n3)c2C)cn1` [Compound A5], the IC50 turned out to be 30 nM.

In turn, `Cc1nn(-c2ccc(F)nc2)c(C)c1-c1cc(N2CCOC[C@H]2C)nc(-c2cc(F)cc3[nH]ccc23)n1` [Compound A6] showed an IC50 of 14 nM.

For `Cc1nn(-c2ccc(=O)[nH]c2)c(C)c1-c1cc(N2CCOC[C@H]2C)nc(-c2cc(F)cc3[nH]ccc23)n1` [Compound A7], the IC50 turned out to be 6 nM.

In turn, `Cc1ncccc1-n1nc(C)c(-c2cc(N3CCOC[C@H]3C)nc(-c3cc(F)cc4[nH]ccc34)n2)c1C` [Compound A8] registered an IC50 of 9 nM.

Turning to `Cc1nn(-c2cncc(C#N)c2)c(C)c1-c1cc(N2CCOC[C@H]2C)nc(-c2cc(F)cc3[nH]ccc23)n1` [Compound A9], the IC50 was determined as 16 nM.

Regarding `Cc1nn(-c2cnccc2Cl)c(C)c1-c1cc(N2CCOC[C@H]2C)nc(-c2cc(F)cc3[nH]ccc23)n1` [Compound A10], the IC50 is 20 nM.

The molecule `CCc1cncc(-n2nc(C)c(-c3cc(N4CCOC[C@H]4C)nc(-c4cc(F)cc5[nH]ccc45)n3)c2C)c1` [Compound A12] returned an IC50 of 36 nM.

In turn, `Cc1nn(-c2cncc(C(F)(F)F)c2)c(C)c1-c1cc(N2CCOC[C@H]2C)nc(-c2cc(F)cc3[nH]ccc23)n1` [Compound A13] had an IC50 of 88 nM.

Consider `Cc1nn(-c2cnccc2F)c(C)c1-c1cc(N2CCOC[C@H]2C)nc(-c2cc(F)cc3[nH]ccc23)n1` [Compound A14], for which the IC50 amounted to 9 nM.

`Cc1nn(-c2ccnnc2)c(C)c1-c1cc(N2CCOC[C@H]2C)nc(-c2cc(F)cc3[nH]ccc23)n1` [Compound A15] showed an IC50 of 2 nM.

`Cc1nn(-c2cccnn2)c(C)c1-c1cc(N2CCOC[C@H]2C)nc(-c2cc(F)cc3[nH]ccc23)n1` [Compound A16] showed an IC50 of 1 nM.

`Cc1nn(-c2cncc(Cl)c2)c(C)c1-c1cc(N2CCOC[C@H]2C)nc(-c2ccnc3[nH]ccc23)n1` [Compound A18] yielded an IC50 of 1 nM.

As to `Cc1c(-c2cc(N3CCOC[C@H]3C)nc(-c3ccnc4[nH]ccc34)n2)c(C(F)(F)F)nn1-c1cncc(F)c1` [Compound A20], the IC50 amounted to 11 nM.

On to `Cc1nn(-c2ccc(=O)[nH]c2)c(C)c1-c1cc(N2CCOC[C@H]2C)nc(-n2c(NCCO)nc3ccccc32)n1` [Compound B13], for which the IC50 is 5 nM.

A further assay concerns TOV21G (ovarian cancer). Put plainly: Cell proliferation inhibition in vitro, CellTiter-Glo, TOV21G. It is filed as cell-based. The settings on record: Homo sapiens; TOV21G cells, 120 hours, CellTiter-Glo; read-out: TOV21G/IC50/μM. On the procedure:
as §1, §2
TOV21G cells were cultured in MCDB105/M199 medium (containing 15% of FBS), and used for assaying when the cell confluence reached 85% or more. About 1000 cells were inoculated in each well of a 96-well culture plate, and cultured for 24 hours. Different concentrations (0-10 μM) of compounds to be assayed were added to treat the cells. Each group was assayed in triplicate. Blank wells (containing medium only) and control wells (inoculated cells without being treated with drug) were set. Cells were cultured for 120 hours. 40 μL of Cell Titer-Glo solutions (Promega, #G7573) were added to each well, and the cells were incubated with shaking for 20 min in the dark. 100 μL of solution was transferred from each well to a 96-well blank plate (Corning, #3917), and the luminescence value was read by Biotek Synergy H1 multifunctional microplate reader.
On the technique in general: In ATP-based viability assays light output follows the ATP content of the culture.
In the case of `Cc1nn(-c2ccncc2)c(C)c1-c1cc(N2CCOC[C@H]2C)nc(-c2cc(F)cc3[nH]ccc23)n1` [Compound A2], the IC50 was determined as 0.397 µM.

With `Cc1nn(-c2cccnc2)c(C)c1-c1cc(N2CCOC[C@H]2C)nc(-c2cc(F)cc3[nH]ccc23)n1` [Compound A4], the IC50 was 0.313 µM.

Turning to `COc1ccc(-n2nc(C)c(-c3cc(N4CCOC[C@H]4C)nc(-c4cc(F)cc5[nH]ccc45)n3)c2C)cn1` [Compound A5], the IC50 came to 0.647 µM.

As for `Cc1nn(-c2ccc(F)nc2)c(C)c1-c1cc(N2CCOC[C@H]2C)nc(-c2cc(F)cc3[nH]ccc23)n1` [Compound A6], the IC50 was determined as 0.423 µM.

Take `Cc1nn(-c2ccc(=O)[nH]c2)c(C)c1-c1cc(N2CCOC[C@H]2C)nc(-c2cc(F)cc3[nH]ccc23)n1` [Compound A7]: the IC50 was 0.33 µM.

As for `Cc1ncccc1-n1nc(C)c(-c2cc(N3CCOC[C@H]3C)nc(-c3cc(F)cc4[nH]ccc34)n2)c1C` [Compound A8], the IC50 is 0.274 µM.

Take `Cc1nn(-c2cncc(C#N)c2)c(C)c1-c1cc(N2CCOC[C@H]2C)nc(-c2cc(F)cc3[nH]ccc23)n1` [Compound A9]: the IC50 was 0.28 µM.

Take `Cc1nn(-c2cnccc2Cl)c(C)c1-c1cc(N2CCOC[C@H]2C)nc(-c2cc(F)cc3[nH]ccc23)n1` [Compound A10]: the IC50 turned out to be 0.556 µM.

As to `Cc1nn(-c2cnccc2F)c(C)c1-c1cc(N2CCOC[C@H]2C)nc(-c2cc(F)cc3[nH]ccc23)n1` [Compound A14], the IC50 came out at 0.522 µM.

Consider `Cc1nn(-c2ccnnc2)c(C)c1-c1cc(N2CCOC[C@H]2C)nc(-c2cc(F)cc3[nH]ccc23)n1` [Compound A15], for which the IC50 was found to be 0.234 µM.

`Cc1nn(-c2cccnn2)c(C)c1-c1cc(N2CCOC[C@H]2C)nc(-c2cc(F)cc3[nH]ccc23)n1` [Compound A16]: the IC50 came out at 0.166 µM.

Take `Cc1nn(-c2cncc(Cl)c2)c(C)c1-c1cc(N2CCOC[C@H]2C)nc(-c2ccnc3[nH]ccc23)n1` [Compound A18]: the IC50 was 0.208 µM.

With `Cc1c(-c2cc(N3CCOC[C@H]3C)nc(-c3ccnc4[nH]ccc34)n2)c(C(F)(F)F)nn1-c1cncc(F)c1` [Compound A20], the IC50 is 0.284 µM.
